Experimental data taken from publication PMC12152147, “DDB1 engagement defines the selectivity of S656 analogs for cyclin K degradation over CDK inhibition” (EMBO Reports, 2025).
Several values for one entry are separate records, joined by “and”; a condition that tells them apart may be missing. Equal entries are not always repeated. Where two headings read alike, the source gives them in different places.

Columns and labels:
[1] = test system: OCI-AML5 cells; assay: Dose-response proliferative assay in OCI-AML5 (4 days, CellTiterGlo); format: cell-based, H. sapiens; conditions: OCI-AML5 cells; read-out: IC50 in AML5
How it was run: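 Viability assessed after 4 days of compound exposure at 37 °C, 5% CO2. Compounds tested as 8 dilutions (1:4, 10 μM to 0.5 nM) on 300 OCI-AML5 cells/well grown in αMEM with 10% heat-inactivated FBS and 10 ng/mL GM-CSF.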

[2] = molecular target: T1, CDK9/CyclinT (Homo sapiens, UniProt P50750); assay: CDK9/CyclinT in vitro kinase activity, single concentration 1 μM; format: biochemical; conditions: single concentration 1 μM
T1 construct: purchased BPS Bioscience 79628
T1 sequence (P50750 whole entry): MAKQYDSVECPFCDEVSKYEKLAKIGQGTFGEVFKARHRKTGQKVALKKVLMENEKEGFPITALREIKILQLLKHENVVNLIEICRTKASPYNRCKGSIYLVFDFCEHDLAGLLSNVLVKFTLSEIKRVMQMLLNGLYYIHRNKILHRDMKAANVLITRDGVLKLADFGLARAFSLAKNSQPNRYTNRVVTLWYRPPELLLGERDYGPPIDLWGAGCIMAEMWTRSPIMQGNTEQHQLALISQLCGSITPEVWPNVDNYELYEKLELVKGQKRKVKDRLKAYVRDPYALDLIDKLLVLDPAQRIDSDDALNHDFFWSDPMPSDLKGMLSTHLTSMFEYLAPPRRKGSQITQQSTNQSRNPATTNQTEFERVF
T1 sequence (O60563 whole entry partner): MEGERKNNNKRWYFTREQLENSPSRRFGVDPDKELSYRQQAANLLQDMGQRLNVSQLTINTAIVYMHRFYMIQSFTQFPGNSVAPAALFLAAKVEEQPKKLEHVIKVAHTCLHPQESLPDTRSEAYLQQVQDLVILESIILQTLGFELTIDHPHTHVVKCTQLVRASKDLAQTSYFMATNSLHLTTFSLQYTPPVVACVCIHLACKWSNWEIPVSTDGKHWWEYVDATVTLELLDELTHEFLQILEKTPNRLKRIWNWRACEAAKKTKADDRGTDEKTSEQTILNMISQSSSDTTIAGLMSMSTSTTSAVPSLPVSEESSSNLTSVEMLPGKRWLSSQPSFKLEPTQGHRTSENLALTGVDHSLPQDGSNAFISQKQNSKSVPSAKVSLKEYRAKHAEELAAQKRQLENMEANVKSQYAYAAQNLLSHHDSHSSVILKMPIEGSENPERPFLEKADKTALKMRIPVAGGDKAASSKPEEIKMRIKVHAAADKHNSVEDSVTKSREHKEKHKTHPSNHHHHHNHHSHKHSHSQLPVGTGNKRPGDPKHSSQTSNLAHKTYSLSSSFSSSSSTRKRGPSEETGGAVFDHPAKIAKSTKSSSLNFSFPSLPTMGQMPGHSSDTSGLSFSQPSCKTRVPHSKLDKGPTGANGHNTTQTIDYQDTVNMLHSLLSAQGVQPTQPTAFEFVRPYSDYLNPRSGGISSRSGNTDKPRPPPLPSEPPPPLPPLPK
Procedure: (§1) Kinase activity was assessed using the kinase assay kits from BPS Bioscience for CDK1, CDK9 and CDK12 with Kinase Glo MAX in duplicates. Compounds were tested at a single concentration of 1 μM for CDK1 and CDK9 activity, and in a dilution ranging from 0.64 nM to 50 μM for CDK12 activity. Chemiluminescence was read using the Neo Synergy BioTek plate reader.

[3] = test system: cyclin KeGFP; assay: Cyclin KeGFP reporter system (eGFP/mCherry MFI by flow cytometry);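 as to % degradation cyclin K-eGFP: 10 μM compound for 3 h relative to DMSO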; format: cell-based, H. sapiens
How it was run: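 Degradation read as eGFP-to-mCherry MFI ratio relative to DMSO controls, from flow cytometry of the selected G7 clone of OCI-AML5 cells transduced with the cyclin KeGFP reporter.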

[4] = test system: OCI-AML5 cells expressing shRNAs targeting CDK1, 2, 4, 7, 9, cyclin K; assay: Dose response in OCI-AML5 expressing shRNAs targeting CDK1, 2, 4, 7, 9, cyclin K or control; format: cell-based, H. sapiens; conditions: for IC50: OCI-AML5, 4 days
[5] = molecular target: T2, CDK12/Cyclin K (Homo sapiens, UniProt Q9NYV4); assay: CDK12/CyclinK in vitro kinase assay (BPS kit, Kinase Glo MAX); format: biochemical; conditions: in % (unit assumed)
T2 construct: purchased BPS Bioscience 78298
T2 sequence (Q9NYV4 whole entry): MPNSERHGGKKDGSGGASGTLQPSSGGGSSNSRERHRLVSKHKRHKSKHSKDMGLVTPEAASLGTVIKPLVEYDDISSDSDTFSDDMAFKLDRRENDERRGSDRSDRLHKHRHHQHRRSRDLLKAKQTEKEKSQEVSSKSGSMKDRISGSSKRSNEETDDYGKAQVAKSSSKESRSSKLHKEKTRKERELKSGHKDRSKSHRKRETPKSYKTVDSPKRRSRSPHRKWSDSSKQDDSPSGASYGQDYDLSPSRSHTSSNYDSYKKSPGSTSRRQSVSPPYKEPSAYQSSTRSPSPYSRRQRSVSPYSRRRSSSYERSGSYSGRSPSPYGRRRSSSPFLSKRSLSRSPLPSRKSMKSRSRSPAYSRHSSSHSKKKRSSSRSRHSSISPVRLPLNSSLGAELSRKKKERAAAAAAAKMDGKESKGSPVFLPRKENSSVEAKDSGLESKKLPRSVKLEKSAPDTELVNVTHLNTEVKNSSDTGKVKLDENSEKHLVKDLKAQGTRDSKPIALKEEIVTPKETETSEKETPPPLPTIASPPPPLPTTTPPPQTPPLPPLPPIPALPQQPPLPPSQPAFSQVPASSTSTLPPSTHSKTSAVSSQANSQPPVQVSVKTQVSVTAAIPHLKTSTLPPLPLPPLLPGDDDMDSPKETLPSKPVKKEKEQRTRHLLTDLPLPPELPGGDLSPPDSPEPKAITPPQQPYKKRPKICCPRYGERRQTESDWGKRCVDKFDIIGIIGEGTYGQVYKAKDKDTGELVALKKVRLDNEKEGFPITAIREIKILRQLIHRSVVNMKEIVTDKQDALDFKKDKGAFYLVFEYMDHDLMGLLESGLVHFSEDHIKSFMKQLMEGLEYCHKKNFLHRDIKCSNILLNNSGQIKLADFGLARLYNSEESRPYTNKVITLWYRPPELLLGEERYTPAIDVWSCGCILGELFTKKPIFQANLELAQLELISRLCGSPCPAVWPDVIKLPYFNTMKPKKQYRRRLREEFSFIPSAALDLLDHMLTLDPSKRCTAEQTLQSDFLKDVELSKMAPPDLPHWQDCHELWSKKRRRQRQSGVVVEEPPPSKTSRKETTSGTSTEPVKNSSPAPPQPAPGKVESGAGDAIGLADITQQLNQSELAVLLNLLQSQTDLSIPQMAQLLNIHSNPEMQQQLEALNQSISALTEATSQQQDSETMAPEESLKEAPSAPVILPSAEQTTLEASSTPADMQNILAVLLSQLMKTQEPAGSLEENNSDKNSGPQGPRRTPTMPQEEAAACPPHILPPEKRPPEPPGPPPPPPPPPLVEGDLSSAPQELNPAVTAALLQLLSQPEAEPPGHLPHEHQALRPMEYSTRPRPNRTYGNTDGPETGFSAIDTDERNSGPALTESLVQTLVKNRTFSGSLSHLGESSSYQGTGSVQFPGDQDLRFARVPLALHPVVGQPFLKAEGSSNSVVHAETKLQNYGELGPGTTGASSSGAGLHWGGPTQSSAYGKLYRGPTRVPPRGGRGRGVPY
T2 sequence (O75909 whole entry partner): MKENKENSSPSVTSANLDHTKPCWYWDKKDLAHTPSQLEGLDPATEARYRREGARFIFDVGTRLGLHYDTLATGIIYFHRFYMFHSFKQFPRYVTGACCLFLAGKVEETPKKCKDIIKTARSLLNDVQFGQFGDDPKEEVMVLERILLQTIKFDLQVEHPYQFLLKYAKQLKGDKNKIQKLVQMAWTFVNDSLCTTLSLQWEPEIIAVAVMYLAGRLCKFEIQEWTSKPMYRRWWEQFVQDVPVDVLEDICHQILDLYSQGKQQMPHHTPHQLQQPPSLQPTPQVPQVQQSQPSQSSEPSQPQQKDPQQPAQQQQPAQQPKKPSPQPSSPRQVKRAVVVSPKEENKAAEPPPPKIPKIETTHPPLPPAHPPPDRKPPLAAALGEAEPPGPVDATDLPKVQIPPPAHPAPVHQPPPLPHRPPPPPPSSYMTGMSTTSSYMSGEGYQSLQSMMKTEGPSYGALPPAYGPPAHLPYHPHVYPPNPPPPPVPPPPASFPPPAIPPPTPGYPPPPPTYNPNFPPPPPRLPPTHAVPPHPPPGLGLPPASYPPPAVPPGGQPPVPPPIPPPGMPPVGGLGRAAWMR
Procedure: as §1

[6] = test system: primary AML specimens; assay: Dose-response assays in primary AML specimens (6 days, CellTiterGlo); format: cell-based, human; conditions: 6 days, read-out: IC50
Procedure: Freshly thawed primary AML specimens were used for chemical screens. Cryopreserved cells were thawed at 37 °C in IMDM containing 20% FBS and DNase I (100 μg/mL). Cells were resuspended in IMDM supplemented with 15% BIT (BSA, insulin, transferrin; StemCell Technologies), 100 ng/mL SCF, 50 ng/mL FLT3L, 20 ng/mL IL3, 20 ng/mL G-CSF, 10^−4 mol/L b-mercaptoethanol, gentamicin (50 μg/mL), ciprofloxacin (10 μg/mL), SR1 (500 nmol/L) and UM729 (500 nmol/L). Cells were plated in 384-well white plates, 5000 cells per well in 50 μL. Compounds were dissolved in DMSO, diluted in media immediately before use and added to seeded cells at the unique concentration of 1 μM. Control wells received DMSO (0.1%) only. Cell viability was evaluated after 6 days in culture using the CellTiterGlo assay according to the manufacturer’s instruction. Percentage of inhibition for dose response curves was calculated as 100 – (100 × (mean luminescence [compound]/mean luminescence [DMSO])). Dose response curves were generated using nonlinear regression in GraphPad Prism version.
Dose-response assays in primary AML specimens were performed as in chemical screen (see above) with the exception that compounds were tested in serial dilution (8 dilutions, 1:4, 10 μM down to 0.5 nM). Dose-response assays in OCI-AML5 cell line were conducted similarly with the following modifications: 300 cells per well were seeded in 50 μL of cell line media and cell viability was evaluated after 4 days in culture.

IC50 [1]: 56 nM
% CDK9 inhibition [2]: 100%
IC50 ([4]; read-out: IC50, sh CDK1): 69.6 nM and 111 nM and 91.9 nM
IC50 ([4]; read-out: IC50, sh CDK2): 67.6 nM and 80.5 nM and 96.4 nM
IC50 ([4]; read-out: IC50, sh CDK4): 61.8 nM and 75.2 nM and 63.5 nM
IC50 ([4]; read-out: IC50, sh CDK7): 61.1 nM and 84.1 nM and 69.1 nM
IC50 ([4]; read-out: IC50, sh CDK9): 55.2 nM and 60.8 nM and 44.9 nM
IC50 ([4]; read-out: IC50, sh Cyclin K): 13.1 nM and 15.5 nM and 20.6 nM
IC50 ([4]; read-out: IC50, sh ctrl): 55.8 nM and 70.4 nM and 56.2 nM
in vitro inhibition of CDK12/Cyclin K activity ([5]; Log10 (uM) 1): 58.77 and 64.89 and 109.89
in vitro inhibition of CDK12/Cyclin K activity ([5]; Log10 (uM) 1.69897): 81.16 and 77.06 and 130.98
in vitro inhibition of CDK12/Cyclin K activity ([5]; Log10 (uM) -0.39794): 16.88 and 18.59 and 15.49
SMILES: CC[C@H](CO)Nc1nc(NCc2ccc(-c3ccccn3)cc2)c2ncn(C(C)C)c2n1 [CR8]
MFI of cyclin KeGFP over mCherry ([3]; OCI-AML5 G7 clone, 3 h, 10 μM, normalized to DMSO (=100)): 13.6 and 15.4 and 15.2 and 15.3 and 14.9
% degradation cyclin K-eGFP ([3]; cyclin K-eGFP reporter): 86%
Class ([4]; class from shRNA IC50 profile and cyclin K-eGFP degradation): 1
IC50 ([6]; primary AML specimen 03H109): 48.5 nM
IC50 ([6]; primary AML specimen 04H055): 123 nM
IC50 ([6]; primary AML specimen 04H096): 55 nM
IC50 ([6]; primary AML specimen 04H138): 127 nM
IC50 ([6]; primary AML specimen 05H113): 48.9 nM
IC50 ([6]; primary AML specimen 05H149): 66.3 nM
IC50 ([6]; primary AML specimen 05H193): 63.3 nM
IC50 ([6]; primary AML specimen 06H088): 74.7 nM
IC50 ([6]; primary AML specimen 06H117): 60.2 nM
IC50 ([6]; primary AML specimen 06H151): 43 nM
IC50 ([6]; primary AML specimen 07H003): 129 nM
IC50 ([6]; primary AML specimen 07H131): 154 nM
IC50 ([6]; primary AML specimen 07H144): 51.9 nM
IC50 ([6]; primary AML specimen 07H155): 144 nM
IC50 ([6]; primary AML specimen 08H018): 124 nM
IC50 ([6]; primary AML specimen 08H021): 53.6 nM
IC50 ([6]; primary AML specimen 08H056): 136 nM
IC50 ([6]; primary AML specimen 08H063): 149 nM
IC50 ([6]; primary AML specimen 08H085): 63.1 nM
IC50 ([6]; primary AML specimen 08H108): 126 nM
IC50 ([6]; primary AML specimen 08H118): 50.2 nM
IC50 ([6]; primary AML specimen 09H016): 51.5 nM
IC50 ([6]; primary AML specimen 09H070): 140 nM
IC50 ([6]; primary AML specimen 10H014): 38.9 nM
IC50 ([6]; primary AML specimen 10H046): 59.9 nM
IC50 ([6]; primary AML specimen 10H107): 76.8 nM
IC50 ([6]; primary AML specimen 10H127): 93.5 nM
IC50 ([6]; primary AML specimen 10H161): 75.2 nM
IC50 ([6]; primary AML specimen 10H174): 54.8 nM
IC50 ([6]; primary AML specimen 11H008): 85.8 nM
IC50 ([6]; primary AML specimen 11H019): 69.4 nM
IC50 ([6]; primary AML specimen 11H170): 162 nM
IC50 ([6]; primary AML specimen 11H217): 128 nM
IC50 ([6]; primary AML specimen 11H232): 70.1 nM
IC50 ([6]; primary AML specimen 12H033): 107 nM
IC50 ([6]; primary AML specimen 12H055): 100 nM
IC50 ([6]; primary AML specimen 12H148): 74.2 nM
IC50 ([6]; primary AML specimen 13H053): 133 nM
IC50 ([6]; primary AML specimen 15H045): 43.7 nM
IC50 ([6]; primary AML specimen 17H065): 92.3 nM
